Inhibition in vivo data for 40 molecules are collected here from US4393225A, “AI-77 Compounds and pharmaceutically acceptable salts thereof” (Asahi Kasei Kogyo Kabushiki Kaisha, priority 1979, dated 1983).

One assay concerns ulcer. The experiment in a line: Anti-ulcer test (restraint and water immersion ulcer in rats, i.p.). The format is in vivo, Male Wistar rats. The conditions noted are these: Rattus norvegicus, ip, read-out: % Inhibition of Ulcer; for inhibition in vivo at 25 mg/kg: 25 mg/kg i.p. An outline of the steps: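 Compound given intraperitoneally in saline to 24 h-fasted male Wistar rats about 150 g, followed after one hour by 6 h restraint with water immersion at 21 °C. Gastric lesions graded 0, 0.5, 1, 2 or 3 on microscopic inspection and converted to percent ulcer inhibition.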

For the next assay, the system named is edema. The experiment in a line: Anti-edema test (carrageenan hindfoot edema in rats, p.o.). The format is in vivo, Male Wistar rats. The conditions noted are these: Rattus norvegicus, po; 100 mg/kg p.o. (after 3 hours). How it is done: Tables 13, 14 and 15 show the effect of these compounds to inhibit the occurrence of ulcer and edema. The anti-ulcer and anti-edema activity of the compounds was evaluated in efficacy tests described below. The first two symbols that appear in each of the compound names in Tables 13 and 15 represent the compounds synthesized in the methods (1) through (29); for example, IIIa-1 of a compound IIIa-1-1 represent the compound (IIIa-1).
Male Wistar rats weighing about 150 g on average were starved overnight prior to the test. They were than orally administered 100 mg/kg of the test compound. One hour later, the pad of a hindfoot of the animal was injected with 1 mg of carrageenan. The volume of the foot was measured both before the injection of carrageenan and three hours after the injection. The percent edema inhibition of the test compound was calculated from the ratio of the increase in the volume of the affected foot of the test animals to the increase in the volume of the affected foot of the controls.
In general terms: The carrageenan paw model is a standard test of acute inflammation.

Like-named read-outs stand apart in the source and are kept apart here.

`CCNC1CC(=O)OC1C(O)C(=O)NC(CC(C)C)C1Cc2cccc(O)c2C(=O)O1` (stereo not shown) [IIIa-18-1]: the inhibition in vivo at 50 mg/kg with ulcer (50 mg/kg i.p.) amounted to 100%. In the assay with edema, this molecule showed an inhibition in vivo at 100 mg/kg of 38%. The like results for `CCCNC1CC(=O)OC1C(O)C(=O)NC(CC(C)C)C1Cc2cccc(O)c2C(=O)O1` (stereo not shown) [IIIa-18-2] were, in that order, 100% and 38%. Take `CNC1CC(=O)OC1C(O)C(=O)NC(CC(C)C)C1Cc2cccc(O)c2C(=O)O1` (stereo not shown) [IIIa-27-1]: the inhibition in vivo at 50 mg/kg in the assay on ulcer (50 mg/kg i.p.) turned out to be 100%. In the assay on edema, this molecule showed an inhibition in vivo at 100 mg/kg of 38%. Regarding `CCCCCCNC1CC(=O)OC1C(O)C(=O)NC(CC(C)C)C1Cc2cccc(O)c2C(=O)O1` (stereo not shown) [IIIa-18-7], the inhibition in vivo at 50 mg/kg with ulcer (50 mg/kg i.p.) was 100%. In the assay on edema, the inhibition in vivo at 100 mg/kg turned out to be 51%. For `CCCCCCCCCCCCNC1CC(=O)OC1C(O)C(=O)NC(CC(C)C)C1Cc2cccc(O)c2C(=O)O1` (stereo not shown) [IIIa-18-10] the same measures were 94% and 43%. With `CCNC1CC(=O)OC1C(O)C(=O)NC(CC(C)C)C1Cc2cccc(OCC)c2C(=O)O1` (stereo not shown) [IIIa-22-1], the inhibition in vivo at 50 mg/kg in the assay on ulcer (50 mg/kg i.p.) is 94%. The molecule further yielded an inhibition in vivo at 100 mg/kg in the assay with edema of 37%. The like results for `CCCCCCCCCCCCCCCCCCNC1CC(=O)OC1C(O)C(=O)NC(CC(C)C)C1Cc2cccc(O)c2C(=O)O1` (stereo not shown) [IIIa-18-11] were, in that order, 83% and 35%. The like results for `CCCCOc1cccc2c1C(=O)OC(C(CC(C)C)NC(=O)C(O)C1OC(=O)CC1NCC)C2` (stereo not shown) [IIIa-22-3] were, in that order, 94% and 38%. The like results for `CCCCCNC1CC(=O)OC1C(O)C(=O)NC(CC(C)C)C1Cc2cccc(O)c2C(=O)O1` (stereo not shown) [IIIa-18-6] were, in that order, 94% and 50%. For `CCOc1cccc2c1C(=O)OC(C(CC(C)C)NC(=O)C(O)C1OC(=O)CC1NCCC(C)C)C2` (stereo not shown) [IIIa-22-2], the inhibition in vivo at 50 mg/kg in the assay with ulcer (50 mg/kg i.p.) turned out to be 94%. This molecule returned an inhibition in vivo at 100 mg/kg in the assay on edema of 35%.

Regarding `CCCCCCCCNC1CC(=O)OC1C(O)C(=O)NC(CC(C)C)C1Cc2cccc(O)c2C(=O)O1` (stereo not shown) [IIIa-18-9], the inhibition in vivo at 50 mg/kg in the assay on ulcer (50 mg/kg i.p.) worked out at 94%. Further, the inhibition in vivo at 100 mg/kg in the assay with edema was determined as 43%. For `CC(C)CNC1CC(=O)OC1C(O)C(=O)NC(CC(C)C)C1Cc2cccc(O)c2C(=O)O1` (stereo not shown) [IIIa-18-4], the inhibition in vivo at 50 mg/kg in the assay with ulcer (50 mg/kg i.p.) was 94%. The inhibition in vivo at 100 mg/kg in the assay with edema is 47%.

In the case of `CCCCCCCNC1CC(=O)OC1C(O)C(=O)NC(CC(C)C)C1Cc2cccc(O)c2C(=O)O1` (stereo not shown) [IIIa-18-8], the inhibition in vivo at 50 mg/kg with ulcer (50 mg/kg i.p.) was 94%. In addition, the inhibition in vivo at 100 mg/kg in the assay with edema was 50%.

As to `CCCCNC1CC(=O)OC1C(O)C(=O)NC(CC(C)C)C1Cc2cccc(OCC)c2C(=O)O1` (stereo not shown) [IIIa-22-75], the inhibition in vivo at 50 mg/kg in the assay with ulcer (50 mg/kg i.p.) was found to be 100%. The same molecule yielded an inhibition in vivo at 100 mg/kg with edema of 48%. For `CC(C)CCNC1CC(=O)OC1C(O)C(=O)NC(CC(C)C)C1Cc2cccc(O)c2C(=O)O1` (stereo not shown) [IIIa-18-5] the same measures were 100% and 47%. For `CCCCNC1CC(=O)OC1C(O)C(=O)NC(CC(C)C)C1Cc2cccc(OC)c2C(=O)O1` (stereo not shown) [IIIa-22-74] the same measures were 100% and 45%. As for `CCNC1CC(=O)OC1C(O)C(=O)NC(CC(C)C)C1Cc2cccc(OC)c2C(=O)O1` (stereo not shown) [IIIa-22-5], the inhibition in vivo at 50 mg/kg in the assay on ulcer (50 mg/kg i.p.) turned out to be 94%. The inhibition in vivo at 100 mg/kg in the assay with edema is 37%. For the molecule `CCOc1cccc2c1C(=O)OC(C(CC(C)C)NC(=O)C(O)C1OC(=O)CC1NC(=O)c1cn(C(C)=O)c3ccccc13)C2` (stereo not shown) [IIIa-5-34], in the assay with ulcer (50 mg/kg i.p.), the inhibition in vivo at 50 mg/kg amounted to 33%. Same read-out and setting: the same measure for `COC(=O)c1ccc(C(=O)NC2CC(=O)OC2C(O)C(=O)NC(CC(C)C)C2Cc3cccc(O)c3C(=O)O2)cc1` (stereo not shown) [IIIa-1-50]: 66%. For `CCCCOc1cccc2c1C(=O)OC(C(CC(C)C)NC(=O)C(OCCCC)C(O)C(N)CC(N)=O)C2` (stereo not shown) [VII-7-2], the inhibition in vivo at 25 mg/kg in the assay on ulcer came out at 72%. For the molecule `CCCCCc1ccc(COc2cccc3c2C(=O)OC(C(CC(C)C)NC(=O)C(O)C2OC(=O)CC2NC(=O)CCC)C3)cc1` (stereo not shown) [IIIa-5-119], the inhibition in vivo at 50 mg/kg in the assay with ulcer (50 mg/kg i.p.) was determined as 33%. On the same count and under the same terms, the same measure for `CCCCOC(C(=N)NC(CC(C)C)C1Cc2cccc(OC)c2C(=O)O1)C(O)C(N)CC(=O)O` (stereo not shown) [Vb-7-1]: 72%.

As for `CCOc1cccc2c1C(=O)OC(C(CC(C)C)NC(=O)C(O)C1OC(=O)CC1NC(=O)C1CC3C=CC1C3)C2` (stereo not shown) [IIIa-5-69], the inhibition in vivo at 50 mg/kg in the assay on ulcer (50 mg/kg i.p.) is 33%.

As for `Cc1ccc(CNC(=O)CC(N)C(O)C(O)C(=O)NC(CC(C)C)C2Cc3cccc(O)c3C(=O)O2)cc1` (stereo not shown) [VII-1-22], the inhibition in vivo at 25 mg/kg in the assay with ulcer was found to be 83%. Turning to `CCCCCSCC(=O)NC1CC(=O)OC1C(O)C(=O)NC(CC(C)C)C1Cc2cccc(OCC)c2C(=O)O1` (stereo not shown) [IIIa-5-44], the inhibition in vivo at 50 mg/kg in the assay on ulcer (50 mg/kg i.p.) turned out to be 33%. On the same count and under the same terms, the same measure for `CC(C)CC(NC(=O)C(O)C1OC(=O)CC1N)C1Cc2cccc(OC(=O)C(C)C)c2C(=O)O1` (stereo not shown) [IIIa-12-2]: 78%; for `COC(C(=N)NC(CC(C)C)C1Cc2cccc(OC(C)=O)c2C(=O)O1)C(O)C(N)CC(=O)O` (stereo not shown) [Vb-9-1]: 66%.

As for `COC(C)CCNC(=O)CC(N)C(O)C(O)C(=O)NC(CC(C)C)C1Cc2cccc(O)c2C(=O)O1` (stereo not shown) [VII-1-26], in the assay on ulcer, the inhibition in vivo at 25 mg/kg was found to be 94%. For the molecule `CCOc1cccc2c1C(=O)OC(C(CC(C)C)NC(=O)C(O)C1OC(=O)CC1NC(=O)C1CCCCCCC1)C2` (stereo not shown) [IIIa-5-60], the inhibition in vivo at 50 mg/kg in the assay on ulcer (50 mg/kg i.p.) stood at 44%. Still for that read-out and setting: next, `CCCCCCCCCCCCCCCCCCOc1cccc2c1C(=O)OC(C(CC(C)C)NC(=O)C(O)C1OC(=O)CC1NCCCC)C2` (stereo not shown) [IIIa-22-78]: 72%; `CC(C)CC(NC(=O)C(O)C1C=CC(=O)O1)C1Cc2cccc(OCC3CCCCC3)c2C(=O)O1` (stereo not shown) [IVa-4-11]: 33%; `CC(C)CC(NC(=O)C(O)C1OC(=O)CC1N)C1Cc2cccc(OCc3ccccc3)c2C(=O)O1` (stereo not shown) [IIIa-13-9]: 89%.

On to `CCCCNC1CC(=O)OC1C(O)C(=O)NC(CC(C)C)C1Cc2cccc(O)c2C(=O)O1` (stereo not shown) [IIIa-18-3], for which the inhibition in vivo at 50 mg/kg in the assay with ulcer (50 mg/kg i.p.) came out at 100%. This molecule also had an inhibition in vivo at 100 mg/kg with edema of 42%. Regarding `COC(C)CC(=O)Oc1cccc2c1C(=O)OC(C(CC(C)C)NC(=O)C(O)C1OC(=O)CC1N)C2` (stereo not shown) [IIIa-12-6], the inhibition in vivo at 50 mg/kg with ulcer (50 mg/kg i.p.) was 78%. Consider `CCNC(CC(N)=O)C(O)C(O)C(=O)NC(CC(C)C)C1Cc2cccc(OC)c2C(=O)O1` (stereo not shown) [VII-14-2], for which, in the assay on ulcer, the inhibition in vivo at 25 mg/kg is 83%. In the case of `CC(C)CC(=O)NC1CC(=O)OC1C(O)C(=O)NC(CC(C)C)C1Cc2cccc(O)c2C(=O)O1` (stereo not shown) [IIIa-1-5], the inhibition in vivo at 50 mg/kg with ulcer was 66%. For `CC(C)CC(NC(=O)C(O)C1OC(=O)CC1N)C1Cc2cccc(OCc3ccco3)c2C(=O)O1` (stereo not shown) [IIIa-13-13], in the assay with ulcer (50 mg/kg i.p.), the inhibition in vivo at 50 mg/kg came out at 89%.

Turning to `CCCC(=O)Oc1cccc2c1C(=O)OC(C(CC(C)C)NC(=N)C(OCC)C(O)C(N)CC(=O)O)C2` (stereo not shown) [Vb-9-2], the inhibition in vivo at 50 mg/kg in the assay on ulcer (50 mg/kg i.p.) was 66%. `CC(C)CC(NC(=O)C(O)C1OC(=O)CC1NC(=O)CCC1CCCC1)C1Cc2cccc(O)c2C(=O)O1` (stereo not shown) [IIIa-1-63]: in the assay on ulcer (50 mg/kg i.p.), the inhibition in vivo at 50 mg/kg amounted to 66%.

For `CCCCCCCCOc1cccc2c1C(=O)OC(C(CC(C)C)NC(=O)C(O)C1OC(=O)CC1NC(C)=O)C2` (stereo not shown) [IIIa-5-11], in the assay on ulcer (50 mg/kg i.p.), the inhibition in vivo at 50 mg/kg turned out to be 44%.
